Data on three compounds can be found in US20180344725A1, “QUINOLONE CHALCONE COMPOUNDS AND USES THEREOF” (priority 2015, published 2018).

Assay [1] concerns MDA-MB-231 human metastatic breast cancer cells. Briefly: Anti-tumor activity in xenograft mice. Format: in vivo. As to conditions: Tax 10 mg/kg I.V. once/week, CTR 30 mg/kg I.P. every 3 days, or Tax 5 + CTR 15 mg/kg once/week. The procedure: Five-week old female CD-1 and ATH490 (strain code 490) athymic nude mice were purchased from Charles River (Quebec, Canada). The MDA-MB-231 human metastatic breast cancer cells were obtained from the American Tissue Culture Collection (ATCC, Manassas, Va., USA). Cells were maintained under humidified conditions at 37° C. and 5% CO2 in DMEM high glucose medium (ATCC) supplemented with 10% fetal bovine serum and antibiotics.
For paclitaxel treatments, 40 mg/ml stock solution of paclitaxel (Sigma, MO) was prepared in DMSO. Just before administration to mice, the paclitaxel stock solution was diluted ten-fold in a buffer containing 10% DMSO, 12.5% Cremophor, 12.5% ethanol, and 65% saline-based diluent (0.9% sodium chloride, 5% polyethylene glycol, and 0.5% tween-80) which is defined as vehicle (Huang et al., 2006). Alanine transaminase (ALT, SUP6001-c)/Aspartate transaminase (AST, SUP6002-c) color endpoint assay kits were purchased from ID Labs Biotechnology (London, Ontario, Canada). Elevation of ALT and AST levels in serum samples was used as an indicator of liver damage/injury.
To determine the anti-tumor activity of CTR compounds in animals, a xenograft model of human breast cancer cells in athymic nude mice was established. Exponentially growing MDA-MB-231 metastatic breast cancer cells were harvested and counted for inoculation into mice. Each mouse was subcutaneously injected at the flank with 10×10^6 cells in 0.2 ml ice cold 1×PBS. When tumor size reached 4-5 mm in diameter (n=4-5 per group), mice were randomly assigned into several groups as described herein.
Animals were monitored for food and water consumption every day, and their body weights and tumor volumes were measured twice per week. Tumor volumes were measured with a digital caliper and were determined by using the following formula: ½ length×width^2. Blood samples were collected via cardiac puncture and processed further for ALT and AST measurements. The animals were then immediately euthanized by carbon dioxide. Tumors and vital organs (spleen, kidney, liver and lung) were collected and fixed in 10% buffered formalin at 4° C. overnight before being processed for paraffin embedding. The paraffin-embedded blocks were then cut into 4-5 μm thick sections. Each section of tumors and organs was stained with hematoxylin and eosin (H&E).

A further assay deals with KB-C-2. Briefly: SRB-based cytotoxicity assay, single and combination with paclitaxel. As to conditions: for IC50: Homo sapiens, KB-C2, KB-C-2, multidrug-resistant; for Resistance (fold): KB-C-2 versus KB-C-1. It is filed as cell-based, human. The protocol:
1845B5 and MCF-10A non-cancer breast cell lines were cultured in DME/F12 medium supplemented with 10% fetal bovine serum, antibiotics and growth factors. […] The human small cell lung carcinoma H69 cell line and its multidrug-resistant MRP1-overexpressing isogenic H69AR cell line were purchased from ATCC. […] H69 cells grow as large multi-cell aggregates, making it difficult to accurately count cell numbers. […] The IL-6 dependent bortezomib-resistant ANBL6-BR cell line was further supplemented with 1 ng/ml of IL-6. The MCF10AT1 and MCF10CA1a cell lines are isogenic to the MCF10A cell line, and obtained from Dr. Valerie Weaver at the Center for Bioengineering and Tissue Regeneration, UCSF, CA, USA. […] The drug-resistant cells were cultured in the absence of drug for at least one passage before carrying out experiments. All cells were maintained in a humidified incubator at 37° C. […] Cell line authentication was performed using short tandem repeat (STR) profiling. […] Some wells were treated with 100 μl of 10% trichloroacetic acid (TCA) as a negative control and sham (medium with dimethyl sulfoxide; DMSO) treated cells were used as a positive control. […] TCA was removed and cells were washed with cold tap water, and plate was air-dried, followed by addition of 50 μl of 0.4% SRB staining solution to each well. After 30 minutes incubation, SRB staining solution was removed. Cells were washed with 1% acetic acid solution, and then washed with tap water to remove unbound staining solution, followed by air-drying. 200 μl of 10 mM (pH10.5) trizma base buffer was added to each well to solubilise macromolecules. […] Cell growth (inhibition) was calculated by the following formula: % cells proliferation=[(AT-CT)/(ST-CT)]×100 wherein AT=absorbance of treated cells, CT=absorbance of negative control cells, and ST=absorbance of sham treated cells. […] CI values were determined from four independent experiments.

The mark [2] stands for this setting: single agent at 0.5IC50 (CTR-17 0.325 μM; CTR-20 0.125 μM; paclitaxel 11.5 nM).
The mark [3] stands for this setting: single agent at IC50 (CTR-17 0.65 μM; CTR-20 0.25 μM; paclitaxel 23 nM).

Consider `COc1ccc2[nH]c(=O)c(/C=C/C(=O)c3ccccc3OC)cc2c1` [CTR-20, (E)-6-Methoxy-3-(3-(2-methoxyphenyl)-3-oxoprop-1-enyl) quinolin-2(1H)-one], for which the “tumor size (volume)” value in assay [1] (Day 0) turned out to be 92.51 mm^3; in assay [1] (Day 6), 69.89 mm^3; in assay [1] (Day 14), 84.64 mm^3; in assay [1] (Day 17) it was 97.11 mm^3; in assay [1] (Day 20) it was 97.22 mm^3; in assay [1] (Day 24) it was 106.26 mm^3. Moreover, the “tumor size (volume)” value in assay [1] (Day 27) came to 124.88 mm^3; in assay [1] (Day 30), 140.63 mm^3. Besides, the IC50 (as a rule, the concentration that inhibits the measured activity by half) with KB-C-2 stood at 250 ± 30 nM. In addition, the “Resistance (fold)” value with KB-C-2 is recorded as 2.50 fold. In addition, the values for the Cell survival rates in the assay on KB-C-2 (setting [2]) and in the assay on KB-C-2 (setting [3]) were 76.0 ± 9.6 and 56.8 ± 8.4, respectively.
Turning to `COc1ccccc1C(=O)/C=C/c1cc2ccccc2[nH]c1=O` [CTR-17, (E)-3-(3-(2-Methoxyphenyl)-3-oxoprop-1-enyl)quinolin-2(1H)-one], the “tumor size (volume)” value was determined as 86.71 mm^3 in assay [1] (Day 0); 63.99 mm^3 in assay [1] (Day 6); 90.07 mm^3 in assay [1] (Day 14); 128.36 mm^3 in assay [1] (Day 17); 134.76 mm^3 in assay [1] (Day 20); 160.86 mm^3 in assay [1] (Day 24). Moreover, the “tumor size (volume)” value turned out to be 189.45 mm^3 in assay [1] (Day 27) and 209.84 mm^3 in assay [1] (Day 30). The IC50 in the assay on KB-C-2 was 650 ± 160 nM. The “Resistance (fold)” value with KB-C-2 stood at 1.71 fold. In addition, the Cell survival rates in the assay on KB-C-2 (setting [2]) worked out at 80.0 ± 11.4; in the assay with KB-C-2 (setting [3]), 53.2 ± 12.6.
With `CC(=O)O[C@H]1C(=O)[C@@]2(C)[C@H]([C@H](OC(=O)c3ccccc3)[C@]3(O)C[C@H](OC(=O)[C@H](O)[C@@H](NC(=O)c4ccccc4)c4ccccc4)C(C)=C1C3(C)C)[C@]1(OC(C)=O)CO[C@@H]1C[C@@H]2O` [Paclitaxel, reference compound], the “tumor size (volume)” value in assay [1] (Day 0) is recorded as 91.84 mm^3; in assay [1] (Day 6) it was 90.11 mm^3; in assay [1] (Day 14) it was 94.66 mm^3; in assay [1] (Day 17) it was 92.33 mm^3; in assay [1] (Day 20), 81.66 mm^3; in assay [1] (Day 24), 95.61 mm^3. Besides, the entries for the “tumor size (volume)” value in assay [1] (Day 27) and in assay [1] (Day 30) were 139.41 mm^3 and 170.36 mm^3, respectively. The “Resistance (fold)” value with KB-C-2 was determined as 11.48 fold. Besides, the Cell survival rates in the assay on KB-C-2 (single agent at 0.125IC50 (paclitaxel 2.875 nM)) was determined as 99.6 ± 0.3; with KB-C-2 (single agent at 0.25IC50 (paclitaxel 5.75 nM)), 89.5 ± 6.0; with KB-C-2 (setting [2]), 75.9 ± 7.7; in the assay with KB-C-2 (setting [3]), 48.4 ± 5.8.
